Like-named read-outs stand apart in the source and are kept apart here.
Experiments:
H1299 cells [1] = conditions: mouse, in vivo
Experimental: (§1) Animals were randomly divided into seven groups and treatment was started on day-15 post implantation, when the mean tumor volume was approximately 115 mm^3.
(§2) Body weight was measured daily on Days 1-5, then twice weekly until the completion of the study. Tumor volume was measured twice weekly and each animal was euthanized when the calculated tumor volume reached the 2000 mm^3 endpoint, or on day-88 post implantation, whichever came first.

H1299 cells [2] = test: H1299 human NSCLC xenograft model in nu/nu mice; conditions: for tumor-free survival (TFS): 74 days post first treatment, CRLX101 10 mg/kg qwk×3, gemcitabine 120 mg/kg q3d×4, topotecan 12 mg/kg q4d×3; for median tumor volume (MTV) of survivors: D74, gemcitabine 120 mg/kg (five TFS), docetaxel 30 mg/kg (two D74 survivors)
Experimental: as §1, §2

[3] = tested on: human ovarian carcinoma A2780 cells; conditions: 72 h, MTS
Experimental: The human ovarian carcinoma A2780 cells were obtained from the American Type Culture Collection. […] The medium was replaced with fresh medium containing the test compound at concentrations ranging from 0.01 nmol/L to 1 μmol/L. Triplicate wells per plate were treated at each concentration. Controls were vehicle-treated cells and medium only blank. […] MTS assay reagent was prepared by diluting CellTiter 96 AQueous One Solution (Promega) 5-fold into PBS/glucose (4.5 g/L). Cell culture medium was aspirated and 100 μL of MTS reagent were added to each well. Plates were incubated at 37° C. for 1 h. The plates were shaken for 5 min and the absorbance was measured at 485 nm using a [sequence]uor Plus plate reader (Tecan). The percentage of cell survival was calculated relative to untreated cells, and IC50s were estimated from the graphs of log dose (nmol/L) versus % cell survival (GraphPad Prizm).

SMILES	BW Nadir (lowest group mean body weight, as % change from Day 1) (H1299 cells [1]) [%]	tumor-free survival (TFS) (H1299 cells [2]) [%]	median tumor volume (MTV) of survivors (H1299 cells [2]) [mm3]	further results
C#Cc1cccc(Nc2ncnc3cc(OCCOC)c(OCCOC)cc23)c1 [Erlotinib, erlotinib]	−2.9			
Nc1ccn([C@@H]2O[C@H](CO)[C@@H](O)C2(F)F)c(=O)n1 [Gemcitabine, gemcitabine]	−2.3	50	0	
CCc1c2c(nc3ccc(O)cc13)-c1cc3c(c(=O)n1C2)COC(=O)[C@]3(O)CC [SN-38, 20(S)-7-ethyl-10-hydroxycamptothecin]				IC50 [3]: 2.44 nM
CC[C@@]1(O)C(=O)OCc2c1cc1n(c2=O)Cc2cc3c(CN(C)C)c(O)ccc3nc2-1 [Topotecan, topotecan]	−0.6	10		
CC(=O)O[C@@]12CO[C@@H]1C[C@H](O)[C@@]1(C)C(=O)[C@H](O)C3=C(C)[C@@H](OC(=O)[C@H](O)[C@@H](NC(=O)OC(C)(C)C)c4ccccc4)C[C@@](O)([C@@H](OC(=O)c4ccccc4)[C@H]21)C3(C)C [Docetaxel, docetaxel]			302	group mean body weight loss (H1299 cells [2]; docetaxel 30 mg/kg on D21): 9.3%; survival (H1299 cells [2]; docetaxel 30 mg/kg qwk×3, D74, no TFS): 20%; BW Nadir (lowest group mean body weight, as % change from Day 1) (H1299 cells [2]; same regimens as E168, '—' indicates that no decrease in mean body weight was observed): −9.3%
